Measurements reported in patent publication US20240376097A1, “BCL-2 Inhibitor” (BeiGene Ltd., priority 2020, published 2024).

Tests used:
[1] = target: Recombinant human Bcl-2 protein (Homo sapiens (Human), UniProt P10415); assay: Bcl-2 TR-FRET Assay; format: binding; conditions: Bcl-2 wild type, TR-FRET; read-out: Biochemical assay (IC50, nM) Bcl-2 WT
Outline: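 TR-FRET read (337 nm excitation, 520/490 nm emission) after 1 h with 0.5 nM FITC-labeled Bak peptide and Tb-cryptate anti-6His antibody. Bcl-2 at 0.05 nM had been pre-incubated 0.5 h with compound. IC50 fitted by four-parameter logistic equation.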

[2] = system: BCL-2 G101V knock-in cell line H96 (derive from RS4;11); assay: Bcl 2-G101V Knock-In RS4;11 Cell Proliferation Assay; format: cell-based; conditions: Homo sapiens, RS4;11 Bcl-2 G101V knock-in clone H96, 48 hrs, CellTiter-GLO, read-out: Cellular proliferation assay (IC50, nM) RS4
Outline: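 CellTiter-Glo luminescence after 48 h, 37 °C compound treatment (10 concentrations, maximum 1 μM or 10 μM) gave mean IC50 values. Cells were 50,000 per well of H96, a BCL2-G101V knock-in single clone derived from RS4;11 by Cas9 editing.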

[3] = system: recombinant human Bcl-2-G101V protein; assay: Bcl-2-G101V TR-FRET Assay; format: binding; conditions: ratio of biochemical IC50 Bcl-2 G101V / Bcl-2 WT
Outline: (§1)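 IC50 values derive from four-parameter logistic fitting of percent inhibition data. That inhibition of ligand binding to Bcl-2-G101V is computed from the 490 nm/520 nm TR-FRET ratio under 337 nm excitation, over a rising compound concentration series.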

[4] = target: recombinant human Bcl-2-G101V protein (Homo sapiens (Human), UniProt P10415, G101V); assay: Bcl-2-G101V TR-FRET Assay; format: binding; conditions: Bcl-2 G101V mutant, TR-FRET; read-out: Biochemical assay (IC50, nM) Bcl-2 G101V
Outline: as §1

[5] = system: RS4;11 (BCL-2 dependent acute lymphoblastic leukemia cell line); assay: RS4;11 Cell Proliferation Assay; format: cell-based; conditions: Homo sapiens, RS4-11, RS4;11 cells, read-out: Cellular proliferation assay (IC50, nM) RS4
Outline: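 Viability measured via CellTiter-Glo luminescence after a 48 h, 37 °C exposure to compounds (10 points, highest 1 μM). Seeding was 50,000 RS4;11 cells per well in 10% FBS RPMI-1640; IC50 given as mean.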

## COc1cc(CN2CCN(C3CC4(C3)CN(c3ccc(C(=O)NS(=O)(=O)c5ccc(NC[C@H]6CC[C@](C)(O)CC6)c([N+](=O)[O-])c5)c(Oc5cnc6[nH]ccc6c5)c3)C4)[C@H](c3ccccc3C(C)C)C2)ccc1C(F)(F)F [Example 290, 2-((1H-pyrrolo[2,3-b]pyridin-5-yl)oxy)-N-((4-((((1r,4r)-4-hydroxy-4-methylcyclohexyl)methyl)amino)-3-nitrophenyl)sulfonyl)-4-(6-((R)-2-(2-isopropylphenyl)-4-(3-methoxy-4-(trifluoromethyl)benzyl)piperazin-1-yl)-2-azaspiro [3.3]heptan-2-yl)benzamide]
[1]
  IC50: 0.9 nM
[2]
  IC50: 1.5 nM
[3]
  Ratio of Bcl-2 G101V/WT: 2.5
[4]
  IC50: 2.2 nM
[5]
  IC50: 0.2 nM

## CC(C)c1ccccc1C1CN(Cc2cccc3c2N(C)C(=O)CO3)CCN1C1CC2(CCN(c3ccc(C(=O)NS(=O)(=O)c4ccc(NC[C@H]5CC[C@](C)(O)CC5)c([N+](=O)[O-])c4)c(Oc4cnc5[nH]ccc5c4)c3)CC2)C1 (some centres unmarked) [Example 216, 2-((1H-pyrrolo[2,3-b]pyridin-5-yl)oxy)-N-((4-((((1r,4r)-4-hydroxy-4-methylcyclohexyl)methyl)amino)-3-nitrophenyl)sulfonyl)-4-(2-(2-(2-isopropylphenyl)-4-((4-methyl-3-oxo-3,4-dihydro-2H-benzo[b] [1,4]oxazin-5-yl)methyl)piperazin-1-yl)-7-azaspiro[3.5]nonan-7-yl) benzamide]
[1]
  IC50: 0.19 nM
[2]
  IC50: 2.76 nM
[3]
  Ratio of Bcl-2 G101V/WT: 4.2
[4]
  IC50: 0.81 nM
[5]
  IC50: 0.33 nM

## COc1cc(CN2CCN(C3CC4(CCN(c5ccc(C(=O)NS(=O)(=O)c6ccc(NC[C@H]7CC[C@](C)(O)CC7)c([N+](=O)[O-])c6)c(Oc6cnc7[nH]cc(F)c7c6)c5)CC4)C3)C(c3ccccc3C(C)C)C2)ccc1C1CC1 (some centres unmarked) [Example 161, 4-(2-(4-(4-cyclopropyl-3-methoxybenzyl)-2-(2-isopropylphenyl)piperazin-1-yl)-7-azaspiro[3.5]nonan-7-yl)-2-((3-fluoro-1H-pyrrolo[2,3-b]pyridin-5-yl)oxy)-N-((4-((((1r,4r)-4-hydroxy-4-methylcyclohexyl)methyl)amino)-3-nitrophenyl)sulfonyl) benzamide]
[1]
  IC50: 0.42 nM
[2]
  IC50: 1.22 nM
[3]
  Ratio of Bcl-2 G101V/WT: 6.8
[4]
  IC50: 3.9 nM
[5]
  IC50: 0.46 nM

## COc1ccc(CN2CCN(C3CC4(CCN(c5ccc(C(=O)NS(=O)(=O)c6ccc(NC[C@H]7CC[C@](C)(O)CC7)c([N+](=O)[O-])c6)c(Oc6cnc7[nH]ccc7c6)c5)CC4)C3)C(c3ccccc3C)C2)cc1 (some centres unmarked) [Example 34, 2-((1H-pyrrolo[2,3-b]pyridin-5-yl)oxy)-N-((4-((((1r,4r)-4-hydroxy-4-methylcyclohexyl)methyl)amino)-3-nitrophenyl)sulfonyl)-4-(2-(4-(4-methoxybenzyl)-2-(o-tolyl)piperazin-1-yl)-7-azaspiro[3.5]nonan-7-yl)benzamide]
[1]
  IC50: 0.049 nM
[2]
  IC50: 13.9 nM
[3]
  Ratio of Bcl-2 G101V/WT: 36.7
[4]
  IC50: 1.8 nM
[5]
  IC50: 1.3 nM

## CCN1CCN(C2CC3(CCN(c4ccc(C(=O)NS(=O)(=O)c5ccc(NC[C@H]6CC[C@](C)(O)CC6)c([N+](=O)[O-])c5)c(Oc5cnc6[nH]ccc6c5)c4)CC3)C2)C(c2ccccc2C(C)C)C1 (some centres unmarked) [Example 2]
[1]
  IC50: 0.011 nM
[2]
  IC50: 3.94 nM
[3]
  Ratio of Bcl-2 G101V/WT: 22.7
[4]
  IC50: 0.25 nM
[5]
  IC50: 0.53 nM

## COc1ccc(CN2CCN(C3CC4(CCN(c5ccc(C(=O)NS(=O)(=O)c6ccc(NC[C@H]7CC[C@](C)(O)CC7)c([N+](=O)[O-])c6)c(Oc6cnc7[nH]ccc7c6)c5)CC4)C3)C(c3ccccc3C(C)C)C2)cc1C1CC1 (some centres unmarked) [Example 136, 2-((1H-pyrrolo[2,3-b]pyridin-5-yl)oxy)-4-(2-(4-(3-cyclopropyl-4-methoxybenzyl)-2-(2-isopropylphenyl)piperazin-1-yl)-7-azaspiro[3.5]nonan-7-yl)-N-((4-((((1r,4r)-4-hydroxy-4-methylcyclohexyl)methyl)amino)-3-nitrophenyl)sulfonyl)benzamide]
[1]
  IC50: 0.75 nM
[2]
  IC50: 4.6 nM
[3]
  Ratio of Bcl-2 G101V/WT: 3.8
[4]
  IC50: 2.9 nM
[5]
  IC50: 0.51 nM

## COc1cc(CN2CCN(C3CC4(C3)CN(c3ccc(C(=O)NS(=O)(=O)c5ccc(NC[C@H]6CC[C@](C)(O)CC6)c([N+](=O)[O-])c5)c(Oc5cnc6[nH]ccc6c5)c3)C4)[C@H](c3ccccc3C(C)C)C2)cc2c1OC(C)(C)CC2 [Example 336, 2-((1H-pyrrolo[2,3-b]pyridin-5-yl)oxy)-N-((4-((((1r,4r)-4-hydroxy-4-methylcyclohexyl)methyl)amino)-3-nitrophenyl)sulfonyl)-4-(6-((R)-2-(2-isopropylphenyl)-4-((8-methoxy-2,2-dimethylchroman-6-yl)methyl)piperazin-1-yl)-2-azaspiro[3.3]heptan-2-yl) benzamide]
[1]
  IC50: 0.09 nM
[2]
  IC50: 1.1 nM
[3]
  Ratio of Bcl-2 G101V/WT: 4.2
[4]
  IC50: 0.38 nM
[5]
  IC50: 0.2 nM

## COc1ccc(OC2CCN(C3CC4(CCN(c5ccc(C(=O)NS(=O)(=O)c6ccc(NC[C@H]7CC[C@](C)(O)CC7)c([N+](=O)[O-])c6)c(Oc6cnc7[nH]ccc7c6)c5)CC4)C3)C(c3ccccc3C(C)C)C2)cc1 (some centres unmarked) [Example 138, 2-((1H-pyrrolo[2,3-b]pyridin-5-yl)oxy)-N-((4-((((1r,4r)-4-hydroxy-4-methylcyclohexyl)methyl)amino)-3-nitrophenyl)sulfonyl)-4-(2-(2-(2-isopropylphenyl)-4-(4-methoxyphenoxy)piperidin-1-yl)-7-azaspiro[3.5]nonan-7-yl) benzamide]
[1]
  IC50: 0.36 nM
[2]
  IC50: 3 nM
[3]
  Ratio of Bcl-2 G101V/WT: 4.1
[4]
  IC50: 1.5 nM
[5]
  IC50: 0.44 nM

## CC(C)c1ccccc1C1CN(Cc2cccc(OC3CC3)c2)CCN1C1CC2(CCN(c3ccc(C(=O)NS(=O)(=O)c4ccc(NC[C@H]5CC[C@](C)(O)CC5)c([N+](=O)[O-])c4)c(Oc4cnc5[nH]ccc5c4)c3)CC2)C1 (some centres unmarked) [Example 178, 2-((1H-pyrrolo[2,3-b]pyridin-5-yl)oxy)-4-(2-(4-(3-cyclopropoxybenzyl)-2-(2-isopropylphenyl)piperazin-1-yl)-7-azaspiro[3.5]nonan-7-yl)-N-((4-((((1r,4r)-4-hydroxy-4-methylcyclohexyl)methyl)amino)-3-nitrophenyl)sulfonyl)benzamide]
[1]
  IC50: 0.52 nM
[2]
  IC50: 4.87 nM
[3]
  Ratio of Bcl-2 G101V/WT: 2.9
[4]
  IC50: 1.5 nM
[5]
  IC50: 0.64 nM

## COc1ccc(CN2CCN(C3CC4(CCN(c5ccc(C(=O)NS(=O)(=O)c6ccc(NCC7CCOCC7)c([N+](=O)[O-])c6)c(Oc6cnc7[nH]ccc7c6)c5)CC4)C3)C(c3ccccc3C)C2)cc1 (centres unmarked) [Example 38]
[1]
  IC50: 0.053 nM
[2]
  IC50: 37.5 nM
[3]
  Ratio of Bcl-2 G101V/WT: 77.4
[4]
  IC50: 4.1 nM
[5]
  IC50: 2.5 nM
